Results as given in publication PMC4366275 (Anesthesiology, 2015).
pKd: −log10 of the molar value.

Molecular target: PDZ1–3 (PDZ123) domains of PSD-95 (Rattus norvegicus, UniProt P31016)
Test: […]-1H HSQC NMR chemical shift titration
Format: binding

PDZ1–3 (PDZ123) domains of PSD-95, sequence (P31016 61-393): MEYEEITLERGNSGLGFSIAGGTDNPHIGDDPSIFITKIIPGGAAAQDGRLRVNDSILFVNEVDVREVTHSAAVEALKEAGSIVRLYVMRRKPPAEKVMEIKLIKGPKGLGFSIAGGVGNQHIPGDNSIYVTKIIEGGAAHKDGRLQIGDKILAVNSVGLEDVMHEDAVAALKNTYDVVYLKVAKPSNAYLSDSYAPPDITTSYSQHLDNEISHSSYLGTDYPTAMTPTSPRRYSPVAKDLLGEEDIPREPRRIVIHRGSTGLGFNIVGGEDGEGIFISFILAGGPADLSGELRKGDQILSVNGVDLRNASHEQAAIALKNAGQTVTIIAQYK

FC(F)OC(Cl)C(F)(F)F (stereo not shown) [isoflurane]
pKd: ~2.52
